Results from patent US20250002453A1, “PHARMACEUTICALLY ACCEPTABLE SALT OF ELIGLUSTAT AND CRYSTAL FORM THEREOF” (SPEROGENIX (SHANGHAI) MEDTECH CO., LTD., priority 2021, published 2025).

Assay: Deliquescence / moisture uptake observed under room humidity or during XRPD testing
Format: physicochemical
Conditions: under room humidity conditions
Experimental: Free crystalline form A and 0.5 equivalent of L-malic acid were suspended and stirred in EtOAc for 1 day at room temperature to obtain the sample. The solid was separated by centrifugation and dried under vacuum to obtain crystalline form A of malate.
Free crystalline form A and 0.5 equivalent of L-malic acid were suspended and stirred in IPAc/n-heptane (1:5, v:v) for 1 day at room temperature and 2 days at 40° C., and then the solid was separated by centrifugation. Upon vacuum drying, crystalline form B of malate was obtained.

## CCCCCCCC(=O)NC(CN1CCCC1)C(O)c1ccc2c(c1)OCCO2.O=C(O)CC(O)C(=O)O (stereo not shown) [Crystalline form A of malate]
  deliquescence / moisture absorption: deliquesced significantly
